Molecule `NC(=O)c1ncn([C@@H]2O[C@H](CO)[C@@H](O)[C@H]2O)n1` has a solubility (mole fraction) (in 1,4-dioxane, 283.15 K) of 7.06e-05, a solubility (mole fraction) (in 1,4-dioxane, 288.15 K) of 0.000101 and a solubility (mole fraction) (in 1,4-dioxane, 293.15 K) of 0.000145. It also gave a solubility (mole fraction) (in 1,4-dioxane, 298.15 K) of 0.000203, a solubility (mole fraction) (in 1,4-dioxane, 303.15 K) of 0.000282 and a solubility (mole fraction) (in 1,4-dioxane, 308.15 K) of 0.000387. The solubility (mole fraction) (in 1,4-dioxane, 313.15 K) was 0.000527, the solubility (mole fraction) (in 1,4-dioxane, 318.15 K) was 0.000712 and the solubility (mole fraction) (in acetonitrile, 278.15 K) was 8.6e-06. For the same molecule, the solubility (mole fraction) (in acetonitrile, 283.15 K) was 1.33e-05, the solubility (mole fraction) (in acetonitrile, 288.15 K) was 1.94e-05 and the solubility (mole fraction) (in acetonitrile, 293.15 K) was 2.77e-05. It also gave a solubility (mole fraction) (in acetonitrile, 298.15 K) of 3.96e-05, a solubility (mole fraction) (in acetonitrile, 303.15 K) of 5.64e-05 and a solubility (mole fraction) (in acetonitrile, 308.15 K) of 7.88e-05. It also gave a solubility (mole fraction) (in acetonitrile, 313.15 K) of 0.00011, a solubility (mole fraction) (in acetonitrile, 318.15 K) of 0.00015 and a solubility (mole fraction) (in methanol, 278.15 K) of 0.000379. It also gave a solubility (mole fraction) (in methanol, 283.15 K) of 0.000517, a solubility (mole fraction) (in methanol, 288.15 K) of 0.000711 and a solubility (mole fraction) (in methanol, 293.15 K) of 0.000952. It also gave a solubility (mole fraction) (in methanol, 298.15 K) of 0.00128, a solubility (mole fraction) (in methanol, 303.15 K) of 0.00171 and a solubility (mole fraction) (in methanol, 308.15 K) of 0.00223. For the same molecule, the solubility (mole fraction) (in methanol, 313.15 K) was 0.00293, the solubility (mole fraction) (in methanol, 318.15 K) was 0.00379 and the solubility (mole fraction) (in n-propanol, 278.15 K) was 5.99e-05. The solubility (mole fraction) (in n-propanol, 283.15 K) was 8.69e-05, the solubility (mole fraction) (in n-propanol, 288.15 K) was 0.000122 and the solubility (mole fraction) (in n-propanol, 293.15 K) was 0.000171. The solubility (mole fraction) (in n-propanol, 298.15 K) was 0.000242, the solubility (mole fraction) (in n-propanol, 303.15 K) was 0.000332 and the solubility (mole fraction) (in n-propanol, 308.15 K) was 0.000455. For the same molecule, the solubility (mole fraction) (in n-propanol, 313.15 K) was 0.000617, the solubility (mole fraction) (in n-propanol, 318.15 K) was 0.000829 and the solubility (mole fraction) (in water, 278.15 K) was 0.0058. For the same molecule, the solubility (mole fraction) (in water, 283.15 K) was 0.00775, the solubility (mole fraction) (in water, 288.15 K) was 0.0104 and the solubility (mole fraction) (in water, 293.15 K) was 0.0135. The solubility (mole fraction) (in water, 298.15 K) was 0.0174, the solubility (mole fraction) (in water, 303.15 K) was 0.0219 and the solubility (mole fraction) (in water, 308.15 K) was 0.0273. It also gave a solubility (mole fraction) (in water, 313.15 K) of 0.0335 and a solubility (mole fraction) (in water, 318.15 K) of 0.0405.
